Results on one compound are retold here after ChEMBL document CHEMBL5726111, “Substituted pyridinone compounds as MEK inhibitors” (2017).

Some results are limits rather than exact numbers.

The test has as its target Dual specificity mitogen-activated protein kinase kinase 1 (Homo sapiens, UniProt Q02750). The test is described as follows: LANCE Ultra Assay: The LANCE Ultra assay kit was purchased from PerkinElmer. The ULight-MBP peptide, Europium labeled Antibody and LANCE Detection buffer were purchased from PerkinElmer. The APT and dimethylsulfoxide were purchased from Sigma-Aldrich. The 5× Kinase buffer were purchased from Invitrogen. […] A Mek1 kinase assay (LANCE, PerkinElmer) was developed for supporting compound profiling and lead optimization. […] Then the phosphorylated Erk1 was able to phosphorylate ULight-MBP peptide (PerkinElmer). The phosphorylated peptide was detected by Europium-anti-phospho-MBP (PerkinElmer). […] After quenching the reaction with […], 2 nM Europium-anti-phospho-MBP was added to the reaction mixture and incubated for 60 min, followed by a detection using EnVision Multilabel Plate Reader (PerkinElmer).

Dual specificity mitogen-activated protein kinase kinase 1, sequence (Q02750 whole entry): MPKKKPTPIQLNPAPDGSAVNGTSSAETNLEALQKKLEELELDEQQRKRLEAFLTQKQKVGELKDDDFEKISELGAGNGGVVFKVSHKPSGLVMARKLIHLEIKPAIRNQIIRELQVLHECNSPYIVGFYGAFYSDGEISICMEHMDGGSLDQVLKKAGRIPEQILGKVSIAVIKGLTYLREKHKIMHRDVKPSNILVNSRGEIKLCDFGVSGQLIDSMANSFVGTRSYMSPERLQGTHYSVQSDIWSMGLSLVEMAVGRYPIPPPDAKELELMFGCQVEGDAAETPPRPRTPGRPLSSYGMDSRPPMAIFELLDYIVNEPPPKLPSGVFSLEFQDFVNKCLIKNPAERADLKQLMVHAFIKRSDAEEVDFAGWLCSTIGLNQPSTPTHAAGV

The IC50 is the concentration that inhibits the measured activity by half. On to `Cn1c(Nc2ccc(I)cc2F)c(C(=O)NOCCO)c2c(c1=O)CC(C)(C)C2`, for which the half-inhibitory concentration (IC50) was below 500 nM.
